What was measured:
Rattus norvegicus [1] = test: Intravenously injected compound (0.3 nmol/kg) was tested in rat for the inhibitory activity against endothelin-1 (ET-1) pressor response after 24 hour; type: functional
Rattus norvegicus [2] = test: Intravenously injected compound (0.3 nmol/kg) was tested in rat for the inhibitory activity against endothelin-1 (ET-1) pressor response after 8 hour; type: functional
[3] = target: T1, Endothelin-converting enzyme 1 (Homo sapiens, UniProt P42892); test: In vitro inhibition of human Endothelin converting Enzyme-1 activity
T1 sequence (P42892 whole entry): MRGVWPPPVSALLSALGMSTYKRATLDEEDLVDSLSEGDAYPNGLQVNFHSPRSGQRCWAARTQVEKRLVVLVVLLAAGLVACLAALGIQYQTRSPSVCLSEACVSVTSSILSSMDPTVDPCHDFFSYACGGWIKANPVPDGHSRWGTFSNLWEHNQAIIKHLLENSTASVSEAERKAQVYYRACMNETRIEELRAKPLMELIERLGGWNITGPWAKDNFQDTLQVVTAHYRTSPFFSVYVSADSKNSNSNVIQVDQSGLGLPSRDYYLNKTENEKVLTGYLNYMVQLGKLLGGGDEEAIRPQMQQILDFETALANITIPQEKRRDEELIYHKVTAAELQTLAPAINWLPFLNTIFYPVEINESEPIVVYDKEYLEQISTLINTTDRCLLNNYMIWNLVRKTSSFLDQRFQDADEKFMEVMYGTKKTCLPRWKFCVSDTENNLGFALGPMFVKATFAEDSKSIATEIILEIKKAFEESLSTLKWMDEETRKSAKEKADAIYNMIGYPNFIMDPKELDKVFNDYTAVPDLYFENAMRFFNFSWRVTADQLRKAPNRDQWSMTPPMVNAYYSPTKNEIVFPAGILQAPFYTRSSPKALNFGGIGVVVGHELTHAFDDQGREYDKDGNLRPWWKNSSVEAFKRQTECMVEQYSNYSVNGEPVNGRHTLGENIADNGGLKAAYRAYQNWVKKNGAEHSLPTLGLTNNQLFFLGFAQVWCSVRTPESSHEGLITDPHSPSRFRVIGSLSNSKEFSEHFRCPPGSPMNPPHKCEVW

IC50 [3]	Structure (SMILES)	Inhibition (Rattus norvegicus [1])	Inhibition (Rattus norvegicus [2])
–	CCC[C@H](SC(C)=O)C(=O)NC1(C(=O)N[C@@H](Cc2ccc(-c3ccccc3)cc2)C(=O)OC)CCCC1	30%	75%
77 nM	CC(C)[C@H](S)C(=O)NC1(C(=O)N[C@@H](Cc2ccc(-c3ccccc3)cc2)C(=O)O)CCCC1	–	–

From ChEMBL document CHEMBL1133304, “Design and synthesis of potent thiol-based inhibitors of endothelin converting enzyme-1” (Bioorg Med Chem Lett, 2000)
